Drawing on PMC9403545, “Structure based design of effective HtpG-derived vaccine antigens against M. tuberculosis” (Frontiers in Molecular Biosciences, 2022), this text covers Kd for two compounds.

pKd: −log10 of the molar value.

In general, pKd refers to −log10 of the Kd, conventionally taken in molar units. The low end stands for a high Kd, the high end for a low Kd.

The target of this assay is T1, HtpGMtb (Mycobacterium tuberculosis, UniProt P9WMJ7).
T1 construct: gene htpG; full-length wild type, recombinant in E. coli BL21(DE3), Ni-NTA and SEC, further ion exchange to remove nucleic acid; homodimer
T1 sequence (P9WMJ7 whole entry): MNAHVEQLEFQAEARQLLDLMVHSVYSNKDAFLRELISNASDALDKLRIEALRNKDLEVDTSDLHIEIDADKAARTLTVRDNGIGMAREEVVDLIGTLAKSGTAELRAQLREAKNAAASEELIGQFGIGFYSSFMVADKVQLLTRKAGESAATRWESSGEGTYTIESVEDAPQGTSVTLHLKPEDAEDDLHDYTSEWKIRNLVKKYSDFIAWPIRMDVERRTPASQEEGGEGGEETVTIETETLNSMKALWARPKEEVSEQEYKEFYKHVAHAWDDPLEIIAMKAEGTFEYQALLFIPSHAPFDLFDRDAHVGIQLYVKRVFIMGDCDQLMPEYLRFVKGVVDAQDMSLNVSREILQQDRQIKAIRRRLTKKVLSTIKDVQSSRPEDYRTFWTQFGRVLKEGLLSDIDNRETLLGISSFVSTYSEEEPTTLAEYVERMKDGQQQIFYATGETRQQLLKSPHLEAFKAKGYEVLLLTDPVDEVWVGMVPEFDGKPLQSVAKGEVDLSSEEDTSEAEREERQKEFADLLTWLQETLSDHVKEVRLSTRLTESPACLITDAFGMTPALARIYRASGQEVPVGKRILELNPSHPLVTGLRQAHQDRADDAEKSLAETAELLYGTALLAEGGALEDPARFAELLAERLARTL
Kind of assay: biochemical. It is filed as binding.

Regarding `Nc1ncnc2c1ncn2[C@@H]1O[C@H](COP(=O)(O)OP(=O)(O)NP(=O)(O)O)[C@@H](O)[C@H]1O` [AMP-PNP], the pKd is 4.34. `Nc1ncnc2c1ncn2[C@@H]1O[C@H](COP(=O)(O)OP(=O)(O)O)[C@@H](O)[C@H]1O` [ADP] had a pKd of 4.47. The pKd values of the last two compounds are within 0.2 log units of each other.
